{
  "source": "paper PMC4449373",
  "about": "(Clinical Pharmacokinetics, 2015)",
  "key": {"[1]": {"assay": "Population pharmacokinetic analysis", "assay_type": "in vivo, human"}, "[2]": {"settings": "adult subjects with T2D, cited from earlier work"}},
  "note": "Like-named read-outs stand apart in the source and are kept apart here.",
  "data": [
    {"smiles": "CCCCCCCCCCCCCCCC(=O)N[C@@H](CCC(=O)NCCCC[C@H](NC(=O)[C@H](C)NC(=O)[C@H](C)NC(=O)[C@H](CCC(N)=O)NC(=O)CNC(=O)[C@H](CCC(=O)O)NC(=O)[C@H](CC(C)C)NC(=O)[C@H](Cc1ccc(O)cc1)NC(=O)[C@H](CO)NC(=O)[C@H](CO)NC(=O)[C@@H](NC(=O)[C@H](CC(=O)O)NC(=O)[C@H](CO)NC(=O)[C@@H](NC(=O)[C@H](Cc1ccccc1)NC(=O)[C@@H](NC(=O)CNC(=O)[C@H](CCC(=O)O)NC(=O)[C@H](C)NC(=O)[C@@H](N)Cc1cnc[nH]1)[C@@H](C)O)[C@@H](C)O)C(C)C)C(=O)N[C@@H](CCC(=O)O)C(=O)N[C@@H](Cc1ccccc1)C(=O)N[C@H](C(=O)N[C@@H](C)C(=O)N[C@@H](Cc1c[nH]c2ccccc12)C(=O)N[C@@H](CC(C)C)C(=O)N[C@H](C(=O)N[C@@H](CCCNC(=N)N)C(=O)NCC(=O)N[C@@H](CCCNC(=N)N)C(=O)NCC(=O)O)C(C)C)[C@@H](C)CC)C(=O)O", "note": "[liraglutide]", "values": [
      {"measurement": "Decrease in AUC24, pediatric age group", "setting": "[1]; compared with an adult subject of the same weight and gender", "value": 10, "unit": "%"},
      {"measurement": "Geometric mean AUC24 lower at highest observed body weight (216 kg)", "setting": "[1]; compared with exposure at reference body weight of 90 kg", "value": 56, "unit": "%"},
      {"measurement": "Lower drug exposure (AUC24) for males", "setting": "[1]; compared with the reference female subject of the same body weight", "value": 31, "unit": "%"},
      {"measurement": "Mean decrease in glycated hemoglobin [HbA1c]", "setting": "[2]; liraglutide 1.2 mg and 1.8 mg alone or in combination with other oral antidiabetic drugs and/or insulin", "value": "up to −1.5%"},
      {"measurement": "Safety and tolerability profile", "setting": "[2]; liraglutide 1.2 mg and 1.8 mg", "value": "acceptable safety and tolerability profile"},
      {"measurement": "Mean weight loss", "setting": "[2]; liraglutide 1.2 mg", "value": "≤ -2.9", "unit": "kg"},
      {"measurement": "Mean weight loss", "setting": "[2]; liraglutide 1.8 mg", "value": "up to −3.4 kg"}
    ]}
  ]
}
